According to patent publication US20210308077A1, “COMBINATIONS INCLUDING BETA-ADRENORECEPTOR AGONISTS FOR TREATMENT OF PARKINSON`S DISEASE AND MOVEMENT DISORDERS” (The Brigham and Women`s Hospital, Inc., priority 2017, published 2021):
Where a name gives a salt, the structure may show the parent alone.

Tests used:
Snca mRNA [1] = experiment: Snca mRNA in rat primary cortical neurons; type: cell-based; conditions: metaproterenol 5 μM, clenbuterol 20 μM, salbutamol 10 μM, 48 hours
Method: (§1) Primary cortical cultures were generated from E18 Sprague-Dawley rat embryos. The cortical region was dissected out in Hank's Balanced Salt Solution buffered with Hepes and dissociated with 0.125% trypsin (Invitrogen) for 17 min at 37 ° C., followed by trituration. Dissociated cells were plated at a density of 5×10^5 cells/well or 2.5×10^5 cells/well in 12-well or 24-well plates, respectively precoated with poly-D lysine (100 μg/mL). The cells were cultured in Neurobasal medium with B-27 supplement (Invitrogen) and glutamax and gentamycin. Half of the medium was changed every 4 days. Cortical neurons were treated with β2AR agonists 10 days post plating. They were then harvested 48 hours post-treatment for mRNA extraction and 72 hours post-treatment for protein extraction.
Total RNA from flash-frozen mice brain tissue, rodent primary cells, human neuroblastoma cells and iPSC-derived neuronal cells was isolated using TRIzol® (Life Technologies) following the manufacturer's protocol. RNA concentration was measured using NanoDrop spectrophotometer (Thermo Fisher Scientific, Wilmington, De.). 2 μg of total RNA was reverse transcribed into cDNA using the High Capacity cDNA Reverse Transcription Kit from Applied Biosystems. Quantitative PCR was performed using TaqMan Universal PCR Master Mix (Applied Biosystems) on an ABI 7900HT instrument (Applied Biosystems) as described previously (31). For mouse brain tissue and rat primary cortical neuron samples, rodent-specific TaqMan Assay on-demand primers and probes were used to assay the relative abundance of target genes, and rodent Rp113 was used as a reference gene to normalize for RNA loading. Similar results were obtained when Actb or Ubc were used as controls for input RNA. For human neuroblastoma and iPSC-derived neuron samples, human TaqMan Assay on-demand probes were used to assay the relative abundance of target genes, and the geometric mean of the three human reference genes RPL13, GUSB and UBC was used to normalize for RNA loading. Expression values were analyzed using the comparative threshold cycle method (31).

SNCA mRNA [2] = experiment: endogenous SNCA mRNA expression in SK-N-MC neuroblastoma cells (screening, replication, confirmation; qPCR); type: cell-based, human; conditions: for relative SNCA mRNA abundance, confirmation stage: 10 μM for 48 hours, vs vehicle control
Method: Human neuroblastoma SK-N-MC cells were acquired from American Type Culture Collection (ATCC). Cells were cultured at 37° C. in 5% CO2 in DMEM/F12 supplemented with 10% fetal bovine serum (FBS) and 100 units per ml penicillin and streptomycin. The drug library was obtained from the Laboratory for Drug Discovery in Neurodegeneration (LDDN), Harvard NeuroDiscovery Center, Boston, Mass. The drug library consisted of approximately 1,126 small molecules. About 586 of the compounds were from Prestwick Chemical's (Illkirch, France) library, a unique collection of mostly off-patent small organic molecules, 90% being marketed drugs and 10% bioactive alkaloids or related substances. About 400 compounds were from the SPECS collection (available on the world wide web at.specs.net). 140 compounds generated in house by the LDDN were also included in the library. Compounds for the screening were stored as DMSO stocks. All drugs used for Confirmation Assay were purchased from Sigma (St. Louis, Mo.).
Approximately 2×10^4low passage SK-N-MC cells were seeded per well in 384-well cell culture plates for 24 hours. Compounds were then transferred into each well (final concentration 1 μM) by using a BioMekFX (Beckman Coulter) equipped with a 384-channel pipetting head. After 48 hours in cell culture incubator, cells were washed once in cold phosphate-buffered saline (PBS) by using BioTek ELx405 select CW plate washer and then lysed at room temperature (22-24° C.) with lysis buffer (Applied Biosystems) using the Cell-to-CT procedures according to the manufacturer's instructions (Applied Biosystems). After 5 min, lysis was terminated by incubation with stop solution (Applied Biosystems). 11 μL of each lysate were transferred to 384-well plates for RT in a total volume of 25 μl. 4 μL of RT reaction were then transferred to new 384-well plates for qPCR.
Using the Cell-to-CT kit (Applied Biosystems) we performed expression analysis directly from SK-N-MC neuroblastoma cells cultured in 384-well plates through in situ cDNA synthesis. In this miniaturized assay, high copy numbers of SNCA and of endogenous controls were detected as indicated by raw cycle threshold values of 25.11±0.02 (mean CT value±SEM) and 20.2±0.02 for SNCA and Ubiquitin C (UBC), respectively. Technical variation (using identical cDNA loaded in multiple wells) and biological variation (cDNA synthesized in situ in each of 384 wells of cultured SK-N-MC cells treated with DMSO) were low, with coefficients of variation of 1% and 5.2% respectively. At least ten DMSO-treated controls were included on each 384-well plate as negative external control and calibrator. An equal amount of cDNA derived from Universal Reference RNA was spotted on all plates as plate-to-plate control. Control reactions lacking template or reverse transcription were assayed for contamination with genomic DNA.
41 compounds were forwarded into the Replication Assay. For each compound eight wells were treated with drug and compared to eight wells treated with DMSO alone. The Cell-to-CT procedure was employed using two new reference genes, ribosomal protein L13 (RPL13) and glucuronidase beta (GUSB) (instead of UBC) to control for input RNA. […] 10 compounds met these criteria and were forwarded from the Replication into the Confirmation Assay.
The ten forwarded compounds were used in the Confirmation Assay. For each compound ten wells were treated with drug and compared to ten wells treated with DMSO alone. RNA was extracted using TRIzol® following the manufacturers protocol (Life Technologies). Freshly ordered compounds were used. […] Six compounds met these criteria and were forwarded from the Confirmation Assay to the ELISA Assay stage (see below).
Total RNA from flash-frozen mice brain tissue, rodent primary cells, human neuroblastoma cells and iPSC-derived neuronal cells was isolated using TRIzol® (Life Technologies) following the manufacturer's protocol. […]

α-synuclein protein = α-synuclein protein in rat primary cortical neurons (ELISA); type: cell-based; conditions: metaproterenol 5 μM, clenbuterol 20 μM, salbutamol 10 μM, 72 hours
Method: as §1
Protein lysis buffer containing 320 mM sucrose, 5 mM NaF, 1 mM Na3VO4, 10 mM Tris (pH 7.4), 1 mM EGTA, and 1 mM EDTA was used for mice brain tissue lysis. 100 μL of cold extraction buffer was added to each sample and homogenized in a dounce homogenizer. […] Total protein concentrations were determined by BCA assay (Thermo Scientific) according to the manufacturer's instructions. Total α-synuclein was quantified using an α-synuclein-specific sandwich ELISA.
An α-synuclein-specific Meso Scale Discovery (MSD) ELISA assay (described in Ref. (11)) was utilized for endogenous α-synuclein protein measurement. […] After samples were emptied and plate washed 3 times with TBS-T, sulfo-tagged SOY1 mAb (detection Ab) (generated using Sulfo-Tag-NHS-Ester (MSD) diluted in blocking buffer (6.7 ng/μl), was added to the plate (30 μl volumes/well) and shaken for 1 hour at room temperature. Following 3 washes, MSD Read (2×, diluted in ultrapure water) buffer was added and the plates were immediately measured using a MSD Sector 2400 imager. For confirmatory studies, an second α-synuclein-specific ELISA implementation was used employing a different, extensively published anti-α-synuclein detection antibody (Syn-1 mAb) and a different anti-α-synuclein capture antibody (1H9, courtesy Dr. Selkoe).

[3] = tested on: H3K27 acetylation of SNCA promoter and enhancers; experiment: chromatin immunoprecipitation for H3K27ac at SNCA promoter and enhancers in SK-N-MC cells; type: cell-based, human; conditions: clenbuterol 10 μM, valproic acid 100 μM, propranolol 100 μM, vs vehicle
Method: Chromatin immunoprecipitation (ChIP) assays were performed using the Simple ChIP Enzymatic Chromatin IP kit protocol as recommended by the manufacturer (Cell Signaling Technology) with slight modifications. Briefly, ChIPs were performed on asynchronously growing SK-N-MC cells treated with clenbuterol (10 μM), valproic acid (100 μM) or propranolol (100 μM). Cross-linking was carried out with 1% formaldehyde for 10 min at room temperature. Cross-linking was subsequently quenched by adding glycine to a final concentration of 1× for 5 min. Cells were collected and washed twice with PBS, then resuspended in 2 mL of lysis buffer (as described in the protocol). After 10 min on ice, cells were treated with micrococcal nuclease and then sonicated to obtain DNA fragments of ˜500 bp as determined by agarose gel electrophoresis with ethidium bromide staining. Protein-DNA complexes were isolated by centrifugation at 10,000 rpm for 10 min. Supernatants with protein-DNA complexes were incubated overnight with rabbit polyclonal antibody directed against acetylated H3K27 (Abcam). Normal rabbit IgG was used as a negative control and Histone H3 rabbit mAb (ChIP formulated) as positive control. 2% of sample was saved as input. Antibody-protein-DNA complexes were further incubated for 2 hours with 30 μl of ChIP-grade Protein G magnetic beads to isolate antibody bound fractions of chromatin. Immuno-complexes were washed with the buffers provided and as described in the kit. Protein-DNA complexes were eluted and cross-links of pull down fractions and inputs (2% of total IP fraction) were reversed by 2 hours incubation in Proteinase K and 5 M NaCl at 65° C. […] 2 μl of immunoprecipitated DNA was analyzed by qPCR using a Power SYBR Green PCR Master mix (Applied Biosystems by Life technologies) on an ABI 7900HT instrument (Applied Biosystems) with the following temperature profile: 3 min of enzyme activation at 95° C. followed by 40 cycles of 95° C. for 15 s and 60° C. for 60 s. Sample from three independent immunoprecipitation assays were analyzed.

H3K27Ac = experiment: immunoblot with antibody against H3K27Ac in SK-N-MC cells; type: cell-based, human; conditions: vs vehicle-treated cells
Method: For western blot analysis, protein samples (20 μg) were run on a 4-20% gradient SDS-polyacrylamide gel (Biorad) and transferred onto a polyvinylidene fluoride (PVDF) membrane filter (0.2 μm; Biorad) using an electroblot apparatus (Bio-Rad, Hercules, Calif.) at 100V for 1 h in transfer buffer (25 mM Tris-HCl, 192 mM glycine, 0.1% SDS, 20% (v/v) methanol). The membrane was incubated in blocking solution (50 mM Tris-HCl, 200 mM NaCl, 1 mM MgCl2, pH 7.4) containing 5% non-fat dry milk powder for 1 hour at room temperature. The membrane was processed through sequential incubations with primary antibody overnight at 4° C. followed by incubation with horseradish peroxidase-conjugated species specific secondary antibody at 1:250 dilutions (Thermo Scientific Pierce). Immunoreactive proteins on the membrane were visualized using the SuperSignal™ West Pico Chemiluminescent kit (Thermo Scientific Pierce). Scanned western blots were analyzed using ImageJ software, version 1.47. Pictures were inverted and usually the background signal from an empty lane was subtracted to obtain specific signals for each lane.

[4] = tested on: 6-hydroxydopamine rat model of PD; conditions: 6-hydroxydopamine rat model of PD (reference 9); cited from earlier work

| SMILES | endogenous Snca mRNA (Snca mRNA [1]) | relative SNCA mRNA abundance, confirmation stage (SNCA mRNA [2]; SK-N-MC cells) | reduction of SNCA expression in the screening stage (SNCA mRNA [2]; SK-N-MC cells, 48 hours, vs DMSO, final concentration 1 μM) | SNCA mRNA expression, dose dependence (SNCA mRNA [2]; SK-N-MC cells, indicated doses, 48 hours) | α-synuclein protein levels (α-synuclein protein) | H3K27 acetylation across SNCA promoter and two intronic enhancers (ChIP) [3] | H3K27Ac levels (Western blotting) (H3K27Ac) | relative SNCA mRNA abundance (with H3K27Ac blot) (SNCA mRNA [2]; SK-N-MC cells, vs vehicle-treated cells) | effect of co-treatment on the β2AR agonist effect on SNCA expression (SNCA mRNA [2]; co-treatment of clenbuterol with valproic acid) | dopaminergic neurodegeneration [4] |
| --- | --- | --- | --- | --- | --- | --- | --- | --- | --- | --- |
| CC(C)NCC(O)c1cc(O)cc(O)c1 (centres unmarked) [metaproterenol] | significantly, but modestly, reduced | reduced SNCA mRNA abundance | more than 35% | lowered SNCA mRNA expression in a dose-dependent manner | significantly, but modestly, reduced | – | – | – | – | – |
| CCCC(CCC)C(=O)O [valproic acid] | – | – | – | – | – | increased H3K27 acetylation | increase | increase | abrogated the β2AR agonist effect on SNCA expression | – |
| Nc1nc2ccc(OC(F)(F)F)cc2s1 [riluzole hydrochloride] | – | fourth hit | – | – | – | – | – | – | – | attenuates dopaminergic neurodegeneration |
